Results as given in patent US9381175B2, “Method for treating Chikungunya virus infection” (priority 2014, dated 2016).

How the values were obtained:
[1] = test system: cell fusion of Sf21 cells infected with CS-WT viruses (CHIKV); assay: Cell fusion assay, Sf21 cells infected with recombinant baculovirus CS-WT; conditions: for inhibition of cell fusion induced by CS-WT infection, primary screening: Sf21 cells, screening of drug library, antiviral agents and synthetic peptides, data not shown; for inhibition of cell fusion in CS-WT infected Sf21 cells: 5 mg/mL, 2 hours, pH 5.8, FIG. 11; for inhibition of the membrane fusion of Chikungunya viruses (summary of screening result): bicistronic baculovirus expression system in Sf21 cells
CHIKV [2] = assay: Immunofluorescence assay of CHIKV infection in BHK-21 cells; type: cell-based, Chikungunya virus
CHIKV [3] = assay: Western blot of CHIKV structural protein production in BHK-21 cells; conditions: FIG. 14
BHK-21 cells = assay: Cytotoxicity assay (crystal violet); type: cell-based; conditions: 1,000 μg/ml, BHK-21, 2 days, crystal violet OD 540, FIG. 18 left panel
Method: 10^5 BHK-21 cells per well of 96-well plate were cultured with 2% FCS DMEM. For cykotoxicity assay, cells were cultured in the presence or absence of drug at various concentrations in duplication for 2 days. For cell protection assay, cells were infected with CHIKV at moi of 0.05 in the presence or absence of drugs at various concentrations in duplication for 2 days. Cells were then stained with 0.1% crystal violet solution to observe clearance of the cell monolayer caused by the cytotoxic or cytopathic effect. Crystal violet was quantified by optical density (OD) 540.

CHIKV [4] = assay: Cell protection assay against CHIKV infection (crystal violet); type: cell-based, Chikungunya virus; conditions: BHK-21, moi 0.05, 2 days, FIG. 18
VEEV-TC83 = type: cell-based, Venezuelan equine encephalitis virus
[5] = test system: cell fusion of Sf21 cells infected with VS-TC83 (VEEV-TC83) viruses; type: cell-based, Venezuelan equine encephalitis virus; conditions: for inhibition of fusion (fusion index) of Sf21 cells infected with VS-TC83 viruses: pH 5.8

For carrageenan, the “inhibition of cell fusion induced by CS-WT infection, primary screening” value (from here on “inhibition … primary screening”) [1] was “failed to inhibit the cell fusion”.

`Cc1ccc(C(=O)Nc2ccc(S(=O)(=O)O)c3cc(S(=O)(=O)O)cc(S(=O)(=O)O)c23)cc1NC(=O)c1cccc(NC(=O)Nc2cccc(C(=O)Nc3cc(C(=O)Nc4ccc(S(=O)(=O)O)c5cc(S(=O)(=O)O)cc(S(=O)(=O)O)c45)ccc3C)c2)c1` [suramin] was tested, and the “inhibition of CHIKV infection in vitro (E2 immunofluorescence)” value (CHIKV [2]; 175 μM (2.5 mg/mL), BHK-21, M.O.I. 1, 20 hours, FIG. 15) was “inhibit CHIKV infection in vitro”, the “time-of-addition: stage in which the inhibition activity takes place” value (CHIKV [2]; 5 mg/mL (350 μM), immunofluorescence, FIG. 17 panels A-C) was 0-2 hours post infection and the “time-of-addition: inhibitory effect on addition at a later stage” value (CHIKV [2]; 5 mg/mL (350 μM), immunofluorescence, FIG. 17 panels D-F) was “almost no inhibitory effect”. The “in vitro inhibition efficacy against CHIKV, dose dependence” value (CHIKV [2]; BHK-21, 2,000 PFU CHIKV, 20 hours, FIG. 16) was “increases as the concentration of suramin increases”, the “in vitro inhibitory effect against CHIKV” value (CHIKV [2]; dose of less than 44 μM, FIG. 16 panel D) was “marginal inhibitory effect” and the “inhibitory effect on the production of the structural proteins of CHIKV” value (CHIKV [3]; 44 μM, BHK-21 cells) was “only marginal inhibitory effect”. The “inhibitory effect on the production of the structural proteins of CHIKV, dose dependence” value (CHIKV [3]; BHK-21 cells, 10,000 PFU CHIKV, 20 hours) was “dose-dependency of the inhibitory effect”, the cytotoxicity (BHK-21 cells) was “minimal cytotoxicity” and the “concentrations at which the cells are significantly protected from CHIKV infection” value (CHIKV [4]) was 15.6-1,000 μg/ml. The “protection from the cytopathic effect of CHIKV infection” value (CHIKV [4]) was “protects BHK-21 cells from the cytopathic effect”, the “inhibitory effect on cell fusion (fusion index)” value ([1]; 55 μM, FIG. 13) was “minimal” and the “inhibition of cell fusion in CS-WT infected Sf21 cells” value [1] was “remarkably inhibited the cell fusion”. The “inhibitory efficacy on cell fusion (fusion index), dose dependence” value ([1]; 3,500, 875, 219 or 55 μM, FIG. 12/13) was “inhibitory efficacy of suramin increases as the concentration of suramin increases”, the “inhibition … primary screening” value [1] was “substantially inhibited the cell fusion” and the “inhibition of the membrane fusion of Chikungunya viruses (summary of screening result)” value [1] was “block the membrane fusion”.

For `O=C1[C@H](CC[C@H](O)c2ccc(F)cc2)[C@@H](c2ccc(O)cc2)N1c1ccc(F)cc1` [ezetimibe], the “inhibition … primary screening” value [1] was “failed to inhibit the cell fusion”.

With `NC(=O)c1ncn([C@@H]2O[C@H](CO)[C@@H](O)[C@H]2O)n1` [ribavirin] the “inhibition of CHIKV infection in vitro (E2 immunofluorescence), comparison with suramin” value (CHIKV [2]; 12.5 μg/ml, BHK-21, M.O.I. 1, 20 hours, FIG. 15) was “inhibition efficacy of suramin is higher than that of ribavirin”.

With heparin the “inhibition of VEEV-TC83 infection” value (VEEV-TC83) was “elicited dose-dependent inhibition”, the “inhibition of cell fusion induced by VS-TC83 virus, dose dependence” value [5] was “inhibit the cell fusion induced by VS-TC83 virus in a dose-dependent manner” and the “inhibition of the membrane fusion of Venezuelan equine encephalitis virus (summary of screening result)” value [5] was “can inhibit the membrane fusion”. The “inhibition of fusion (fusion index) of Sf21 cells infected with VS-TC83 viruses” value [5] was “substantially inhibit the fusion” and the “inhibition of the membrane fusion of Chikungunya viruses (summary of screening result)” value [1] was “not effective to inhibit the membrane fusion”.

For chondroitin sulfate, the “inhibition of cell fusion in CS-WT infected Sf21 cells” value [1] was “did not substantially inhibit the cell fusion”.

dextran sulfate was tested, and the “inhibition of VEEV-TC83 infection” value (VEEV-TC83) was “elicited dose-dependent inhibition”, the “inhibition of cell fusion induced by VS-TC83 virus, dose dependence” value [5] was “inhibit the cell fusion induced by VS-TC83 virus in a dose-dependent manner” and the “inhibition of the membrane fusion of Venezuelan equine encephalitis virus (summary of screening result)” value [5] was “can inhibit the membrane fusion”. For the same compound, the “inhibition of fusion (fusion index) of Sf21 cells infected with VS-TC83 viruses” value [5] was “substantially inhibit the fusion” and the “inhibition of the membrane fusion of Chikungunya viruses (summary of screening result)” value [1] was “not effective to inhibit the membrane fusion”.
